The results in this text go back to paper PMC5651824, “Membrane binding of the insertion sequence of Proteus vulgaris L-amino acid deaminase stabilizes protein structure and increases catalytic activity” (Scientific Reports, 2017).

In data set [1] the target is T1, ΔN-pvLAAD (Proteus vulgaris, UniProt Q9LCB2).
T1 construct: gene LAD; N-terminal Tat peptide truncated, residues 30-471; recombinant in E. coli M15, Ni-NTA (His tag) and size exclusion
T1 sequence (Q9LCB2 30-471): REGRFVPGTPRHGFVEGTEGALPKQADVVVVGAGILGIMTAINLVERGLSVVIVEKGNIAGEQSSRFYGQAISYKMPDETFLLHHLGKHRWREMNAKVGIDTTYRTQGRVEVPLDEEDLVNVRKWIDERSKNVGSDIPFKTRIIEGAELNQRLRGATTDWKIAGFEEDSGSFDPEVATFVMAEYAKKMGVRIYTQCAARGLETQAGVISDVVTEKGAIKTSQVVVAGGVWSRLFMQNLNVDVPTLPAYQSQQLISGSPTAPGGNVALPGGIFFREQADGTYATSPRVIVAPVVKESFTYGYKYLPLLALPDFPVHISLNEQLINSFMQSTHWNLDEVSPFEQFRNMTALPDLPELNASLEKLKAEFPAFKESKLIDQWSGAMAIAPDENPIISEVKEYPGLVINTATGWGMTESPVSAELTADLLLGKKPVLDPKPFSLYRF
In words: phenylpyruvate formation, absorbance at […] nm. Format: biochemical. The note with it: without membrane; 25 mM substrate; 50 mM potassium phosphate pH 7.5; 25 °C; 10 µM enzyme.

Substrate in data set [2]: N[C@@H](Cc1ccccc1)C(=O)O
In words: purified protein. The format is biochemical, Proteus vulgaris. To be noted: without membrane, 50 mM potassium phosphate pH 7.5, 37 °C, 5 µM enzyme, 5 min.

With `N[C@@H](Cc1ccccc1)C(=O)O` [L-phenylalanine], the “phenylpyruvate formation, absorbance at 321 nm” value in data set [1] is “does not affect the catalytic activity of pvLAAD in solution”.

B1: FL-pvLAAD (Proteus vulgaris) (protein)
chain: MAISRRKFIIGGTVVAVAAGAGILTPMLTREGRFVPGTPRHGFVEGTEGALPKQADVVVVGAGILGIMTAINLVERGLSVVIVEKGNIAGEQSSRFYGQAISYKMPDETFLLHHLGKHRWREMNAKVGIDTTYRTQGRVEVPLDEEDLVNVRKWIDERSKNVGSDIPFKTRIIEGAELNQRLRGATTDWKIAGFEEDSGSFDPEVATFVMAEYAKKMGVRIYTQCAARGLETQAGVISDVVTEKGAIKTSQVVVAGGVWSRLFMQNLNVDVPTLPAYQSQQLISGSPTAPGGNVALPGGIFFREQADGTYATSPRVIVAPVVKESFTYGYKYLPLLALPDFPVHISLNEQLINSFMQSTHWNLDEVSPFEQFRNMTALPDLPELNASLEKLKAEFPAFKESKLIDQWSGAMAIAPDENPIISEVKEYPGLVINTATGWGMTESPVSAELTADLLLGKKPVLDPKPFSLYRF
notes: full-length with non-cleaved N-terminal Tat peptide (ends at residue 471); recombinant in E. coli M15, Ni-NTA (His tag) and size exclusion
Turning to B1, in data set [2], the Km amounted to 12.56 ± 3.19 mM.
